Patent EP4410284A1, “COMPOUND AND METHOD FOR THE TREATMENT OF ZELLWEGER SPECTRUM DISORDER” (Apteeus, priority 2023, dated 2024)
Counter-ions that a name gives are not always drawn. Like-named read-outs stand apart in the source and are kept apart here.

Assays:
PEX405 cells = type: cell-based; conditions: 3 days, PI positive cells (dead cells)
Description: Images were acquired using the EnSight multimode plate reader (PerkinElmer) and analysis was done using Columbus analysis software (PerkinElmer). […] Then the total number of cells and the % of dead cells was calculated.
All HDAC inhibitors were tested at 1.3 and 10 µM for 3 days on GM16513 and PEX405 cells.

PEX607 = experiment: Catalase import immunofluorescence (% importing cells); type: cell-based, human; conditions: PEX607 (PEX6); for Importing cells (%): at the lower dose leading to the maximum effect (see E18)
Description: (§1) Primary fibroblasts were seeded at 500-700 cells per well in 384-well plates and grown at 37°C overnight. Cells were treated with test compounds or 0.1% DMSO for 3 days. After 3 days and a wash with PBS, cells were fixed with 4% paraformaldehyde (Electron Microscopy Sciences) in PBS for 20 minutes. After 3 washes with PBS, the cells were permeabilized and blocked with 0.3% Triton X-100, 1% BSA in PBS for 30 minutes at room temperature followed by 3 washes with 1% BSA in PBS. The cells were incubated with a rabbit Catalase polyclonal antibody (#12980 Cell signaling) overnight at 4°C. Following 3 washes with PBS containing 0.1% Tween-20, the cells were incubated for 1 h at room temperature with a conjugated goat anti-rabbit secondary antibody Alexa Fluor 647 (Ab150083-Abcam). The cells were then washed 3 times with PBS and Hoechst 33342 (H3570-ThermoFisher Scientific) + HCS Cellmask Blue (H32720 - ThermoFisher Scientific) staining was performed at 0.1 µg/ml and 0.4 µg/mL respectively for 30 minutes at room temperature. The cells were finally washed 3 times with PBS and fluorescent images were acquired using the INCell Analyzer 6000 imaging platform (GE Healthcare Life Sciences).
(§2) Images analysis was done using Columbus analysis software (PerkinElmer). DAPI channel was used to find nuclei (Hoechst 33342) and cytoplasm (HCS CellMask Blue) and border objects were removed. Cy5 channel (AlexaFluor 647) was used to find spots corresponding to peroxisomes which correctly import catalase. Cells were classified as importing or non-importing cells using a linear classifier method after training with images of wells containing Healthy cells and PEX1 deficient cells. The number of importing or non-importing cells was calculated. Finally, results were expressed as % of importing cells.
(§3) Among the HDAC inhibitors of example 2, 4 were tested on other cells which are PEX1, PEX6 or PEX26 deficient.

PEX506 = experiment: as above; type: cell-based, human; conditions: PEX506 (PEX6); for Importing cells (%): at the lower dose leading to the maximum effect (see E16)
Description: as §1, §2, §3

GM11335 = experiment: as above; type: cell-based, human; conditions: GM11335 (PEX26); for Importing cells (%): at the lower dose leading to the maximum effect (see E20)
Description: as §1, §2, §3

GM 16865 = experiment: as above; type: cell-based, human; conditions: GM 16865 (PEX26); for Importing cells (%): at the lower dose leading to the maximum effect (see E22)
Description: as §1, §2, §3

GM 17398 = experiment: as above; type: cell-based, human; conditions: GM 17398 (PEX26 deficient); for Importing cells (%): at the lower dose leading to the maximum effect (see E24)
Description: as §1, §2, §3

PEX304 = experiment: as above; type: cell-based, human; conditions: PEX304 (PEX1); for Importing cells (%): at the lower dose leading to the maximum effect (see E14)
Description: as §1, §2, §3

GM16513 cells = experiment: Plasmalogens synthesis (LC-MS/MS); type: cell-based, human
Description: The assay was performed in T75 culture flasks for 3 or 10 days. The medium was replaced by fresh medium every 2-3 days. After 3 or 10 days, the cells were harvested and lysated in water (100-200 µL) by freeze/thaw cycle and sonication for 5 min. Total proteins were quantified using BCA assay and 100 µg of total proteins were used for each sample.
After cell lysis, the samples were dried using a rotating evaporator (Genevac EZ-2, SP Scientific), set at 40°C for 2h under vacuum. Then a solution containing water/acetonitrile 20/80 v/v was added to the wells. Before analysis, the samples were centrifuged at 4000 rpm for 20 min at room temperature. For the separation of plasmalogens by liquid chromatography, a Waters Acquity ultra-performance liquid chromatography (UPLC) system (Acquity I-Class, Waters) was used. A Waters Acquity UPLC BEH (Ethylene Bridged Hybrid) C8 column (2.1 × 50mm, particle size 1.7 µm, pore size 130 A, 2.1mm inner diameter) preceded by a metal pre-filter (KrudKatcher Ultra HPLC In-Line Filter, AF0-8497, Phenomenex) was used for separation. The column temperature was maintained at 50°C. The injection volume was 5µL for each analysis. The mobile phase A was composed of water + 0.1% formic acid and the mobile phase B was methanol + 0.1% formic acid. The separation was done using a gradient, with a flow rate set at 0.7 mL/min throughout the separation:
During analysis, the samples were kept at 10°C, and 5 µL of each sample were injected. After separation by liquid chromatography, the analytes were subjected to MS/MS analysis using a Waters Xevo TQSmicro system (Waters). The analytes were ionized using positive electrospray ionization (positive ESI). The molecules were analyzed using MRM mode. The analyzed plasmalogens contained moieties with C16:0, C18:0, C18:1 at the sn-1 position and fatty acid of chain-length 18 to 24 with 1 to 6 unsaturations at the sn-2 position. […] The cellular levels of plasmalogens were calculated using the area of each plasmalogen divided by protein quantity. […] The acquired data were analyzed by the Waters MassLynx software.

Structure (SMILES) | % PI+ cells (PEX405 cells; 1.3 µM) [%] | % PI+ cells (PEX405 cells; 10 µM) [%] | Concentration (lower dose leading to the maximum effect) (PEX607) [µM] | Importing cells (%) (PEX607) | Concentration (lower dose leading to the maximum effect) (PEX506) [µM] | Importing cells (%) (PEX506) | Concentration (lower dose leading to the maximum effect) (GM11335) [µM] | Importing cells (%) (GM11335) | Concentration (lower dose leading to the maximum effect) (GM 16865) [µM] | Importing cells (%) (GM 16865) | Concentration (lower dose leading to the maximum effect) (GM 17398) [µM] | Importing cells (%) (GM 17398) | Concentration (lower dose leading to the maximum effect) (PEX304) [µM] | Importing cells (%) (PEX304) | plasmalogen levels (GM16513 cells; 0.5 µM over 3 or 10 days) | plasmalogen levels (GM16513 cells; treatment over 3 days)
O=C(/C=C/c1cccc(S(=O)(=O)Nc2ccccc2)c1)NO [Belinostat] | 1 | 42 | 0.85 | 43 | 0.25 | 64 | 0.85 | 30 | 0.85 | 35 | 2.5 | 0 | 2.5 | 11 | increased | –
CCN(CC)Cc1ccc2cc(COC(=O)Nc3ccc(C(=O)NO)cc3)ccc2c1 [Givinostat (hydrochloride monohydrate), Givinostat] | 3 | 41 | 0.25 | 42 | 0.087 | 69 | 0.087 | 20 | 0.25 | 20 | 2.5 | 0 | 0.85 | 5 | – | increased
